This note sets out measurements from patent US9849194B2, “Compositions and methods for imaging and treatment” (New York University, priority 2014, dated 2017).

For series [1], the system named is HCT116 cells. In words: In vitro cytotoxicity assay, CellTiter-Blue. Type of series: cell-based, human. The protocol:
In vitro cytotoxicity assay. Cell viability was evaluated using the Promega CellTiter-Blue® Cell Viability assay. It uses the indicator dye resazurin to measure the metabolic capacity of cells—an indicator of cell viability. Viable cells retain the ability to reduce resazurin into resorufin, which is highly fluorescent. […] HCT116 cells were seeded at a density of 5×10^4 cells per well in 96-well flat-bottom plates and incubated in 10% FBS-medium for 24 hours. […] After 24 hours incubation, cells were washed with phosphate buffered saline (PBS, Amresco Biotechnolgy grade) and incubated with 20 μL of CellTiter-Blue® Reagent for additional 6 hours at 37° C. The fluorescence corresponding to the resorufin (which reflects the relative viable cell number) was measured at 590 nm using a Synergy H1 Hybrid Reader Biotek. The measurement was performed on untreated cells as a blank control.
Background: Alamar Blue is a resazurin reagent that responds to reducing activity.

Series [2] has as its system HeLa cells. Nature of the series: In vitro cellular uptake in HeLa cells (fluorescence microscopy). Type of series: cell-based.
In series [3] the test system is HeLa cells. Nature of the series: In vitro hyperthermia treatment, HeLa cell viability. Type of series: cell-based. The conditions noted are these: 2 hours incubation, with or without hyperthermia treatments. As to the method: Cell viability tests in presence and in absence of AMF were performed in order to evaluate the effect of combined treatments (hyperthermia and chemotherapy) on HeLa cell viability (FIG. 31). Hela cells were incubated for two hours with no additives, Dox, CB[7]NPs or Dox-CB[7]NPs. Selected samples were then subjected to an alternating magnetic field (464 kHz) for one hour. […] The lack of significant cytotoxicity in the cells incubated with Dox or CB[7]NPs is consistent with the limited cellular uptake of the free drug or the lack of toxicity of the nanocarrier respectively.
In vitro hyperthermia treatment. Viability tests on HeLa cells were performed to investigate the combined effect of both hyperthermia and chemotherapy treatment. Petri-dishes were seeded with HeLa cells (˜50000 cells/mL) and incubated at 37° C. After 24 hours, DMEM was removed, replaced with the following solutions: DMEM (control), Dox ([Dox]=76 μM) and Dox-CB[7]NPs ([Dox]=76 μM, [Iron]=0.04 M) and incubated for 2 hours. […] Two cell viability readings were taken, immediately after hyperthermia treatment and 18 hours after hyperthermia. For cell viability studies 200 μL of CTB per 1 mL of DMEM was added to each petri-dish and incubated for 6 hours after which the medium with CTB was transferred to 96 well plate to take the fluorescence reading.

The subject of series [4] is HeLa cells. In words: Morphology of HeLa cells after hyperthermia and chemotherapy. Type of series: cell-based. The conditions noted are these: one-hour hyperthermia, confocal microscopy. As to the method: Morphology of the cells after hyperthermia and chemotherapy. To assess changes in cell morphology, HeLa cells (˜50000 cells/mL) were cultured in petri-dishes and incubated at 37° C. After 24 hours, DMEM was removed, replaced with the following solutions: DMEM (control), Dox ([Dox]=76 μM) and Dox-CB[7]NPs ([Dox]=76 μM, [Iron]=0.04 M) and incubated for 2 hours. After the treatment, the cells were washed with PBS 3 times and 1 mL of DMEM was added. One petri-dish from each condition was subjected to one hour of magnetic hyperthermia (frequency=464 kHz, current=26.8 kAm^−1) while other petri-dishes were used as control.
After magnetic hyperthermia treatment, DMEM was removed, the cells were washed with PBS three times and 1 ml of prepared formaldehyde solution (Vformaldehyde=1 mL, Vdistilled water=9 mL) was added to the cells for […] to fix them. After removal of formaldehyde solution the cells were allowed to dry at room temperature for 48 hours in a dark place to prevent photodegradation of Dox. Confocal microscopy used observe changes in the morphology of treated cells compared to control cells.

In series [5] the test system is HCT116 cells. Nature of the series: cells. The conditions noted are these: Homo sapiens, HCT-116, 48 h.
Procedure: In order to determine the effectiveness of our nanoparticle system, we conducted a cancer cell viability study on our nanoparticle-drug system and compared it to effectiveness of the free drug (without the NP system). The Promega CellTiter-Blue® Cell Viability Assay was used. The drug, in one condition, and the Drug-NP complex, in another, were incubated with HCT-116 colon cancer cells for 48 hours. Different concentrations of the drug were used (ranging from 0 nM to 500 nM). After the designated incubation time, the IC50—the concentration of the drug needed to inhibit 50% of the cancer cells incubated—was then measured for both conditions.

On to cucurbit[7]uril [CB[7]], for which the cytotoxic effects result in series [1] (24 hours of incubation, concentrations as high as 100 μM) was “Neither CB[7] nor CB[7]NPs displayed cytotoxic effects”; in series [1] (CB[7] concentrations of 1 to 100 μM, 24 hour incubation), “neither CB[7] nor CB[7]NPs elicit cytotoxic effects”.
Turning to `COc1cccc2c1C(=O)c1c(O)c3c(c(O)c1C2=O)C[C@@](O)(C(=O)CO)C[C@@H]3O[C@H]1C[C@H](N)[C@H](O)[C@H](C)O1` [Dox, Doxorubicin], the “fluorescence of treated cells” value in series [2] (2 hours, [DOX]=10 μM) was “weakly fluorescent”. Further, the “normalized fluorescence intensity relative to red emission of Dox-CB[7]NPs” value in series [2] (3 hours at 37° C., same dose of Dox, excitation at 488 nm) is listed as 40%. Also, in series [3], the reduction in viability entry is reported as “Minimal reductions in viability”. Also, the “cell morphology after hyperthermia session” value in series [4] is listed as “normal morphology”.
The compound `CC(=O)O[C@H]1C(=O)[C@@]2(C)[C@H]([C@H](OC(=O)c3ccccc3)[C@]3(O)C[C@H](OC(=O)[C@H](O)[C@@H](NC(=O)c4ccccc4)c4ccccc4)C(C)=C1C3(C)C)[C@]1(OC(C)=O)CO[C@@H]1C[C@@H]2O` [Paclitaxel] displayed an IC50 in series [5] of 71 nM.

Usually IC50 stands for the concentration needed to halve the response being measured.
